Data taken from BindingDB's records for doi:10.1021/jm950876u (Universit&#224, 1996).

Target: Xanthine dehydrogenase/oxidase (Homo sapiens, UniProt P47989)
Assay: Inhibitory activity against Xanthine Oxidase

Chain of Xanthine dehydrogenase/oxidase (P47989 whole entry): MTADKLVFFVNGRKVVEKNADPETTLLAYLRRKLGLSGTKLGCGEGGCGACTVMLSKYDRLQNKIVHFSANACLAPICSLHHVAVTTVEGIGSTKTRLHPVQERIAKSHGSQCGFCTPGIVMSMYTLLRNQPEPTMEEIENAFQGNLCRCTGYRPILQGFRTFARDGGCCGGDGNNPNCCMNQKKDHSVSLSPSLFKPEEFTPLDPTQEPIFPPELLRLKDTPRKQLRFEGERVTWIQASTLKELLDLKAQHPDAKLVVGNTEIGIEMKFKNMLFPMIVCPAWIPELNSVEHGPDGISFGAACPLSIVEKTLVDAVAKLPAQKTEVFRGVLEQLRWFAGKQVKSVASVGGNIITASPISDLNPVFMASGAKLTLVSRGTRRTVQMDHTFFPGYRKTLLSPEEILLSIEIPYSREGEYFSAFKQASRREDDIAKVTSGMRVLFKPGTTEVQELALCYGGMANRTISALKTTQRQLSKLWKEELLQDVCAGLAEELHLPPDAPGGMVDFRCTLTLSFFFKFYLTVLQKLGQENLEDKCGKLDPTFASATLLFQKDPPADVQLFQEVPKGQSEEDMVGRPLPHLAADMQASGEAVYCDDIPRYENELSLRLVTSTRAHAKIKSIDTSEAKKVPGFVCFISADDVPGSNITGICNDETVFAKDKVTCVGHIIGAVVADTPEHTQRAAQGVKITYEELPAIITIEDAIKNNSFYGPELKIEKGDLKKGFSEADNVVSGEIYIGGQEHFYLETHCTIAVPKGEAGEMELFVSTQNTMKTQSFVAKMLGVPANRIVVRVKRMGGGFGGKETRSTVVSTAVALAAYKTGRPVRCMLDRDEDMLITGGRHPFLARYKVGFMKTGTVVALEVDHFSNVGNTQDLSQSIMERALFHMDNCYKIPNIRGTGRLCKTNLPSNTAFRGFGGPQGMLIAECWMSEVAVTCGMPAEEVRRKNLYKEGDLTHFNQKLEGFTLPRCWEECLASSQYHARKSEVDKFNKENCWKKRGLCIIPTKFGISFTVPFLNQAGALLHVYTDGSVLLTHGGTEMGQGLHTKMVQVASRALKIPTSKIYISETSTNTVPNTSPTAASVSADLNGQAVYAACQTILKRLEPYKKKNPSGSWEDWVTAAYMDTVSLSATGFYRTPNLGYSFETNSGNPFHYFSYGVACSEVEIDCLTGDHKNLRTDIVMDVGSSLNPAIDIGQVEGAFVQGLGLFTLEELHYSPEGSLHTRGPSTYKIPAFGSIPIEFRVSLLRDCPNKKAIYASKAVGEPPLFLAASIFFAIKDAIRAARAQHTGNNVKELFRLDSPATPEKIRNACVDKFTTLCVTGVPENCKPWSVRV

| Ki | Compound |
| --- | --- |
| > 100 µM | CC1CSc2nc3[nH]c(=O)[nH]c3c(=O)n2C1 (configuration not stated) [2-Hydroxy-7-methyl-7,8-dihydro-3H,6H-5-thia-1,3,4,8a-tetraaza-cyclopenta[b]naphthalen-9-one] |
| > 100 µM | CC1CSc2nc3[nH]c(=S)[nH]c3c(=O)n2C1 (configuration not stated) [2-Mercapto-7-methyl-7,8-dihydro-3H,6H-5-thia-1,3,4,8a-tetraaza-cyclopenta[b]naphthalen-9-one] |
